Measurements reported in patent US12102607B2, “C5aR inhibitors for use in the treatment of chemotherapy-induced iatrogenic pain” (Dompe' Farmaceutici S.P.A., priority 2017, dated 2024).

What was measured:
[1] = test system: chemotherapy-induced iatrogenic pain (CIIP) in male Balb/C mice; experiment: CIIP model (paclitaxel), mechanical threshold with von Frey filaments, DF2593A; type: in vivo
Method: (§1) The experiments were performed in male Balb/c wild type (WT) and in C5aR deficient (C5aR^−/−) mice (6-8 weeks age). For the experiments with DF2593A, animals were housed in the animal care facility of the Ribeirao Preto Medical School, University of Sao Paulo, in plastic cages at 20° C.±1° C. with water and food ad libitum and controlled light/dark cycle. When done oral acute treatment, animals were kept without food for 2-4 hours. Animals were taken to the testing room at least 1 h before experiments and were used only once. Animal care and handling procedures were in accordance with the International Association for the Study of Pain guidelines and with the control of Animal Ethic Committee from Ribeirao Preto Medical School, protocol 120/2014.
(§2) The protocol used was performed according POLOMANO et al., 2001, adapted to mice. The animals received paclitaxel 4 mg/kg intraperitoneally (i.p.) for four alternate days (days 1, 3, 5, and 7). During treatment period, mechanical and cold allodynia were measured 4 hours after the injection of paclitaxel.
(§3) DF2593A was orally given in dose of 1 mg/kg at 8 and 14th days after first paclitaxel injection. The effect of drug was evaluated 2, 4, 6 and 24 hours after administration.
(§4) DF2593A was given orally in a dose of 1 mg/kg, 12 in 12 hours, for 7 days during the induction phase of CIIP. On days 1, 3 5 and 7, the administration of DF2593A was 1 hour before paclitaxel.
(§5) DF2593A in doses of 10, 30 or 100 μg/5 μL was injected at 8 and 14th days after the first injection of paclitaxel (CIIP).
(§6) In DF2593A experiments, mechanical hyperalgesia was tested using von Frey filaments. Mice were placed in acrylic cages (12×10×17 cm) with wire grid floors in a quiet room 15-30 minutes before the start of testing. A crescent series of filaments were applied on right paw of CIIP mice. The lower filament able to elicit flinching movements was recorded as the mechanical threshold. The animals were tested before and after treatments and the results are expressed as log of mechanical threshold.

[2] = test system: chemotherapy-induced iatrogenic pain (CIIP) in male Balb/C mice; experiment: CIIP model (paclitaxel), cold response acetone test, DF2593A; type: in vivo
Method: as §1, §2, §3, §4, §5
In the same apparatus of von Frey test, and nearly 15 minutes after the mechanical test, was performed the acetone test. With a 1 mL syringe, one drop (50 μL) of pure acetone was released allowing the spreading of liquid for the both paw surfaces (dorsal and plantar). All movements as licking, flinching or lifting of paw were recorded with a chronometer in a total testing time of 2 minutes.

acetylated α-Tubulin = experiment: In-cell western analysis of acetylated α-Tubulin in DRG neurons; type: cell-based, Sprague Dawley rat; settings: for Acetylated α-Tubulin (% of UT): DRG neurons
Method: (§7) Dorsal Root Ganglion neurons were obtained by dissociation of post natal (P2) Sprague Dawley rat ganglia (Envigo, Bresso Italy), following well-defined protocols (O'Meara et al, 2011; Owen et al, 2012). To minimize introduction of contaminating cells into the culture, any excessively long roots were trimmed from DRGs. After the isolation, DRGs were enzymatically dissociated as follows: • 20 minutes of 1.5 mg/ml papain exposure at 37° C., • 30 minutes of 4 mg/ml collagenase exposure at 37° C.
(§8) Subsequently, cells were mechanically dissociated with a fire polished glass Pasteur pipette, in order to obtain a single cell suspension.
(§9) Once dissociation was achieved, cells were seeded onto 96 black multiwell plates coated with Laminin (10 ug/mL, overnight at Room Temperature, RT) at selected densities. Following 1 week of incubation in DMEM high glucose medium supplemented with 10% FBS, 1× N2, 1× B27, 100 IU/mI penicillin, […] streptomycin, cells were treated according to experimental needs.
Dorsal Root Ganglion neurons isolated as previously reported were subjected to the following experimental challenge scheme as depicted in FIG. 10.
Paclitaxel, C5a and drugs were administered 24 hr prior the in-cell western experiment. Following 24 hr of treatment with appropriate stimuli as previously indicated, cells were washed with 1×PBS and fixed with 3,7% formaldehyde for 15 min. After the removal of fixing solution, cells were washed with 1×PBS and permeabilized with 1×PBS-0,1% Triton X-100 for 5 min at RT. Cells were then stained over night at 4° C. with the anti-acetylated α-Tubulin antibody, diluted 1:500 in Odyssey Blocking buffer, following manufacturer's protocol.
The next day, cells were washed with 1×PBS-0.1% Tween20, and stained with the secondary antibody (diluted 1:800 in Odyssey Blocking buffer, as recommended by the protocol) and with the CellTag 700Stain […]. To lower the background, Tween20 at a final concentration of 0.2% was added to the Odyssey Blocking buffer. 96-well plates were then read at Odyssey CLx Imaging system and images acquired. Data analysis was carried out by the use of Image Studio 2.1 software.
Paclitaxel was given to the DRG neurons following 7 days of culture at the concentration of 200 nM (Scuteri et al. 2006).
Effect of DF3966Y in C5α-induced neuronal toxicity In order to determine whether the observed effects may be triggered also by C5a, recombinant mouse C5a 1 μg/ml (111.11 nM) was given to the DRG neurons after 7 days of culture in presence or absence of DF3966Y 1 μM.
After 24 hr of incubation, acetylated α-Tubulin was quantified using in-cell western technique, as previously described.

male Balb/C mice [3] = experiment: Intrathecal injection of recombinant C5a, mechanical threshold (von Frey hair test); type: in vivo
Method: as §1
(§10) Recombinant mouse C5a was given by intrathecal way, in a volume of 5 μL, and its effect follows for 1, 3, 5, 7 and 24 hours after injection.
as §6

male Balb/C mice [4] = experiment: Intrathecal injection of recombinant C5a, thermal threshold (Hargreaves test); type: in vivo; settings: higher doses, between 5 and 7 hours after injection
Method: as §1, §10
Hargreaves test was performed as previous described (HARGREAVES et al., 1988). The animals were habituated on a glass surface with controlled temperature, which allow the homogeneous delivery of infrared light on the paw. After the activation of the light source, a chronometer was turned on. A crescent temperature reached the paw and the chronometer was turned off as soon as the animal did a withdraw movement out the light. The time recorded was considered the heat latency. […]

DRG neurons [5] = experiment: Cells number of DRG neurons (immunofluorescence, image analysis); type: cell-based
Method: as §7, §8, §9
(§11) Alpha Tubulin Acetylation DRG-derived neurons were cultured for 7 days and then treated with:
(§12) • paclitaxel (200 nM, 500 nM, 1 μM and 5 μM, 20 μM) in presence or absence of DF3966Y (0.1, 1 and 10 μM) or DF2593A (0.1, 1 and 10 μM) • or C5a (500 ng/ml and 1 μg/ml) in presence or absence of DF3966Y (1 μM)
(§13) After 24 hr of treatment, cells were stained by immunofluorescence.
(§14) Cells were fixed with saccharose-paraformaldehyde then staining was performed overnight. Primary antibodies (anti—Ill Tubulin and anti-synaptotagmin 1) were diluted 1:500 in 1×PBS-4% BSA-2% Normal goat serum and 0.3% Triton x-100. The next day, cells were washed with 1×PBS-4% BSA and secondary antibodies were used diluted 1:500 in 1×PBS-4% BSA-2% Normal goat serum and 0.3% Triton x-100. After 1 hr of incubation, cells were washed with 1×PBS. Hoechst was used as a counterstain.
(§15) Sixteen images per well were taken with ArrayScan XTI HCA Reader (Thermo Fisher Scientific) with and 40× objective. All the analysis were done with HCS Studio software
(§16) Cells number, synapse number and dentritic arborization were evaluated in untreated cells and in cells stimulated with paclitaxel and C5a alone or in presence of the drug. As marker of chemotherapy-induced toxicity, the total number of synapses on DRG neurons was quantitative evaluated as percentage of the number of synapse with respect to untreated (UT) control.
(§17) Data are obtained as the sum of the values obtained by the analysis of sixteen fields per well for each experiment. Percentage of the values in respect to the relative mean untreated group was calculated. Mean of the percentages from 4 separate experiments was plotted in the following Tables 2-7.

DRG neurons [6] = experiment: Synapse number on DRG neurons (synaptotagmin staining, image analysis); type: cell-based, Sprague Dawley rat
Method: as §7, §8, §9, §11, §12, §13, §14, §15
For synapse count a threshold has been set, in particular all the objects, positive to synaptotagmin staining, in the range 0.365-2.457 μm^2 have been considered as synapses.
as §16, §17

DRG neurons [7] = experiment: Dendritic tree area of DRG neurons (image analysis); type: cell-based, Sprague Dawley rat; settings: C5a alone (Table 7), relative to UT
Method: as §7, §8, §9, §11, §12, §13, §14, §15
Dendritic arborization directly influences synaptic genesis and input. A well-developed arborization indicates a functional synaptic network. For this reason, the area occupied by dendritic arborization has been quantified.
as §17

DRG neurons [8] = experiment: Electrophysiological recordings (whole-cell patch-clamp, current-clamp) of DRG-derived neurons; type: cell-based, Sprague Dawley rat; settings: 1 μg/ml C5a alone
Method: as §7
Dorsal Root Gangliar (DRG)-derived neurons were cultured for 7 days and then treated in blind with the following combinations: 10 nM Paclitaxel, 10 nM Paclitaxel+1 μM DF3966Y, 1 μg/ml C5a, 1 μg/ml C5a+1 μM DF3966Y.
The compounds were administered for 1 min 30 sec (short acute stimulation) or 5 minutes (long chronic stimulation). The application of the compounds was followed by a wash-out in the physiological control solution for an equivalent time (about 10 min).
Electrophysiological recordings were performed by the patch-clamp technique in the whole-cell configuration. The standard extracellr solution was bath applied and contained the following (mM): NaCl 135, KCl 2, CaCl2 2, MgCl2 2, hepes 10, glucose 5, pH 7.4. The standard pipet solution contained the following (mM): potassium aspartate 130, NaCl 10, MgCl2 2, CaCl2 1.3, EGTA 10, Hepes 10, pH 7.3. Recordings were acquired by the pClamp8.2 software and the MultiClamp 700A amplifier (Axon Instruments), in current-clamp mode.

[9] = 1 mg/kg oral, 8th and 14th day of CIIP, 2 until 6 hours after administration
[10] = 1 mg/kg p.o. 12/12 hours for 7 days during induction phase of CIIP, 1 hour before paclitaxel
[11] = 10, 30 or 100 μg/5 μL intrathecal, established CIIP (8 and 14th day)

Molecule: C[C@@H](NC(=O)CCCN1CCCCC1)c1ccc(OS(=O)(=O)C(F)(F)F)cc1 [DF2593A, N-[(1R)-1-(4-trifluoromethanesulfonyloxy)phenylethyl]-4-piperidin-1-ylbutanamide]
- efficacy of the lowest intrathecal dose ([1]; 10 μg/5 μL intrathecal, 8th day): still statistically significant
- mechanical hypersensitivity, acute oral post treatment [1, 9]: able to reduce the mechanical hypersensitivity
- duration of reduction of mechanical and cold hypersensitivity after administration ([1]; 1 mg/kg oral, established pain condition): at least 6 hours
- development of mechanical nociceptive response, chronic pre treatment [1, 10]: prevents the development
- mechanical allodynia, intrathecal treatment [1, 11]: improves mechanical and cold allodynia
- effect on mechanical and cold response 24 hours after the last dose ([1]; chronic 1 mg/kg p.o., 24 hours after the last DF2593A dose): no effect is observed
- cold response, acute oral post treatment [2, 9]: is reduce after DF2593A treatment
- development of cold nociceptive response, chronic pre treatment [2, 10]: prevents the development
- cold allodynia, intrathecal treatment [2, 11]: improves mechanical and cold allodynia
- Acetylated α-Tubulin (% of UT) (acetylated α-Tubulin; drug 0.1 μM under Paclitaxel 200 nM, 24 hr): 107.38 % of UT
- reversal of Paclitaxel-induced increase in acetylated α-Tubulin (acetylated α-Tubulin; drug 0.1 μM, Paclitaxel 200 nM): not able to revert
- Acetylated α-Tubulin (% of UT) (acetylated α-Tubulin; drug 1 μM under Paclitaxel 200 nM, 24 hr): 100.67 % of UT
- reversal of Paclitaxel-induced increase in acetylated α-Tubulin (acetylated α-Tubulin; drug 1 μM, Paclitaxel 200 nM): reverted the Paclitaxel-induced challenge
- Acetylated α-Tubulin (% of UT) (acetylated α-Tubulin; drug 10 μM under Paclitaxel 200 nM, 24 hr): 70.72 % of UT
- reduction in acetylated α-Tubulin with respect to control (UT) cells (acetylated α-Tubulin; drug 10 μM, Paclitaxel 200 nM): about 25%

B1: C5a: recombinant mouse C5a, complement peptide fragment, purchased from R&D (protein, UniProt P06684 679-755, looked up)
C5a anaphylatoxin: NLHLLRQKIEEQAAKYKHSVPKKCCYDGARVNFYETCEERVARVTIGPLCIRAFNECCTIANKIRKESPHKPVQLGR
modifications: C5a anaphylatoxin
notes: recombinant mouse C5a, complement peptide fragment, purchased from R&D
- mechanical threshold after intrathecal C5a (male Balb/C mice [3]; 100, 300 and 600 ng/5 μL intrathecal, mice, up to 24 hours after injection): promoted reduction of mechanical threshold in a dose-dependent manner
- C5a pro-nociceptive effect in C5aR−/− mice (male Balb/C mice [3]; intrathecal C5a, C5aR−/− mice): abrogated
- heat latency after intrathecal C5a (male Balb/C mice [4]): caused a decrease in heat latency
- levels of acetylated α-Tubulin under C5a (acetylated α-Tubulin; C5a 1 μg/ml alone, 24 hr): able to increase the levels of acetylated α-Tubulin
- % of cell number (DRG neurons [5]; C5a alone (Table 3), relative to UT): 98.69 ± 4.22%
- neuronal death (DRG neurons [5]; C5a alone or in combination with DF3966Y 1 μM): did not induce neuronal death
- neuronal activity damage (synapse number) (DRG neurons [6]; C5a alone): did not induce neuronal activity damage
- % of synapse number (DRG neurons [6]; C5a alone (Table 5), relative to UT): 116.90 ± 17.43%
- % dendritic tree area (DRG neurons [7]): 102.68 ± 9.48%
- increase of the firing rate, immediate (DRG neurons [8]; immediate): +55.61%
- reduction of electrical activity, longer times of exposure (DRG neurons [8]; longer times of exposure): about 70%
